Data: patent US11851436B2, “Fused bicyclic pyrimidine derivatives and uses thereof” (The Regents of the University of Colorado, A Body Corporate, priority 2021, dated 2023)

What was measured:
MOLM-13 cells = test: MTS cellular viability assay in MOLM-13 cells; assay type: cell-based; conditions: Homo sapiens, 72 hr, 60 μM to 250 nM, n=3, ±S.D.
Experimental: Cell Culture: MOLM-13 (DSMZ) cells were cultured in RPMI1640 (Gibco) supplemented with 10% FBS (Sigma Aldrich) and 1% penicillin/streptomycin solution (Cellgro) at 37° C. in an incubator humidifier with 95% air and 5% CO2. HEK293 cells (ATCC) were cultured in Dulbecco's Modified Eagle Medium (DMEM; Gibco) supplemented with 10% FBS (Sigma Aldrich) and 1% penicillin/streptomycin solution (Cellgro) at 37° C. in an incubator humidifier with 95% air and 5% CO2. HEK293 cells were allowed to adhere for 24 h prior to use in assays.
MTS Cellular Viability Assay: MOLM-13 cells were seeded into sterile 96-well plates (Corning) at 60,000 cells per well in 100 μL of media. Inhibitor solutions were administered in 50 μL over a concentration range from 60 μM to 247 nM and cells were incubated at 37° C. for 24 to 72 h. Following 3 h incubation with 30 μL CellTiter 96® Aqueous One Cell Proliferation Reagent (Promega), cell viability was measured by formazan concentration assessment through colorimetric analysis using a BioTek Synergy H1 Hybrid plate reader (Absorption=490).
Exemplary compounds were assessed in cell systems for effects on cell viability, as well as their ability to inhibit cellular RSK2 activity.

recombinant RSK2 kinase = recombinant RSK2 kinase (Homo sapiens (Human), UniProt P51812); test: LANCE Eu TR-FRET recombinant RSK2 kinase inhibition assay; assay type: biochemical; conditions: for IC50: recombinant RSK2, 3 μM ATP, mean ± S.D. (n=3)
Experimental: All reagents were prepared in kinase buffer containing 2 mM DTT, 50 mM HEPES, 1 mM EGTA, 10 mM MgCl2, 0.01% Tween 20, pH 7.5. […] RSK2 was used at a final concentration of […]. […] Assays were performed at 25° C. in a reaction mixture consisting of 2 μL serially diluted inhibitor solution, 4 μL kinase, 2 μL substrate, and 2 μL ATP. Reagents were incubated at room temperature for 1 h before the reaction was stopped through the addition of 5 μL of EDTA at a final concentration of 10 mM.
The exemplary compounds were evaluated for their effect on RSK2 activity in the recombinant TR-FRET kinase inhibition assay and their half-maximal inhibitory potency values (IC50) were calculated using nonlinear regression analysis of the log dose-response.

Sequence of recombinant RSK2 kinase (P51812 whole entry): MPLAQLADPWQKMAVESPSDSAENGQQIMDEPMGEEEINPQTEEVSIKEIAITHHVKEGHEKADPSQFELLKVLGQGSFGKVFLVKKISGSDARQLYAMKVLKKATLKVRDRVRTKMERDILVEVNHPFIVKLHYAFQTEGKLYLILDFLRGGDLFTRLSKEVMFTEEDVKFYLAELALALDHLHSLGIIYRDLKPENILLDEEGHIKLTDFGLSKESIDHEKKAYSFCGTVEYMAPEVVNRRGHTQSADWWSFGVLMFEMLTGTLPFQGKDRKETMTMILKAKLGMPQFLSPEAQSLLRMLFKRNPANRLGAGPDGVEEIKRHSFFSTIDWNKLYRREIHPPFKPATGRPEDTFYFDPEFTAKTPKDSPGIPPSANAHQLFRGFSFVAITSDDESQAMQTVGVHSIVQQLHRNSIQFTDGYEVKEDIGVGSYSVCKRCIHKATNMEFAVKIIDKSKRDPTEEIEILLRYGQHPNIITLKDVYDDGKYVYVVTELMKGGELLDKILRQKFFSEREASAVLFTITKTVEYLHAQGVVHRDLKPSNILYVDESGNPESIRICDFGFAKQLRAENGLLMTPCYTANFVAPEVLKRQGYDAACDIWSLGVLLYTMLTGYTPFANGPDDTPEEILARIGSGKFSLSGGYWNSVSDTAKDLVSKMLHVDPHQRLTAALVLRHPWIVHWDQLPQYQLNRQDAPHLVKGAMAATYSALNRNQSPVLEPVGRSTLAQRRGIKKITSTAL

SMILES | EC50 (MOLM-13 cells) | IC50 (recombinant RSK2 kinase) | activity rank in the recombinant kinase assay (recombinant RSK2 kinase; statement in pharmacophore modeling text)
CC(C)CCn1cnc2cnc(Nc3cc(F)c(O)c(F)c3)nc21 [A1-2, 2,6-Difluoro-4-((9-isopentyl-9H-purin-2-yl)amino)phenol] | 970 ± 100 nM | 55.5 ± 5.6 nM | –
Oc1c(F)cc(Nc2ncc3ncn(-c4cccc(Oc5ccccc5)c4)c3n2)cc1F [A1-6, 2,6-Difluoro-4-((9-(3-phenoxyphenyl)-9H-purin-2-yl)amino)phenol] | – | 329 ± 37 nM | –
Oc1c(F)cc(Nc2ncc3ncn(-c4ccc(Oc5ccccc5)cc4)c3n2)cc1F [A1-7, 2,6-Difluoro-4-((9-(4-phenoxyphenyl)-9H-purin-2-yl)amino)phenol] | – | 148 ± 27 nM | –
Oc1cccc(-n2cnc3cnc(Nc4cc(F)c(O)c(F)c4)nc32)c1 [A1-10, 2,6-Difluoro-4-((9-(3-hydroxyphenyl)-9H-purin-2-yl)amino)phenol] | – | 79.8 ± 4.6 nM | –
Oc1ccc(-n2cnc3cnc(Nc4cc(F)c(O)c(F)c4)nc32)cc1 [A1-11, 2,6-Difluoro-4-((9-(4-hydroxyphenyl)-9H-purin-2-yl)amino)phenol] | – | 81.8 ± 0.7 nM | –
CC(C)CCn1ccc2cnc(Nc3cc(F)c(O)c(F)c3)nc21 [A1-15, 2,6-Difluoro-4-((7-isopentyl-7H-pyrrolo[2,3-d]pyrimidin-2-yl)amino)phenol] | 1300 ± 60 nM | 95.8 ± 11 nM | –
CN1CCN(c2ccc(-n3ccc4cnc(Nc5cc(F)c(O)c(F)c5)nc43)cc2)CC1 [A1-17, 2,6-Difluoro-4-((7-(4-(4-methylpiperazin-1-yl)phenyl)-7H-pyrrolo[2,3-d]pyrimidin-2-yl)amino)phenol] | 70 ± 3 nM | 34.7 ± 1.3 nM | –

Now those with a lower IC50 (recombinant RSK2 kinase), led by results:

EC50 (MOLM-13 cells) | IC50 (recombinant RSK2 kinase) | activity rank in the recombinant kinase assay (recombinant RSK2 kinase; statement in pharmacophore modeling text) | SMILES
230 ± 3 nM | 25.7 ± 2.4 nM | – | Oc1c(F)cc(Nc2ncc3ccn(-c4ccc(N5CCOCC5)cc4)c3n2)cc1F [A1-16, 2,6-Difluoro-4-((7-(4-morpholinophenyl)-7H-pyrrolo[2,3-d]pyrimidin-2-yl)amino)phenol]
– | 24.6 ± 3 nM | – | Oc1c(F)cc(Nc2ncc3ncn(-c4ccc(N5CCOCC5)cc4)c3n2)cc1F [A1-3, 2,6-Difluoro-4-((9-(4-morpholinophenyl)-9H-purin-2-yl)amino)phenol]
1900 ± 70 nM | 18.4 ± 4 nM | – | Oc1c(F)cc(Nc2ncc3ncn(-c4ccc(CCN5CCOCC5)cc4)c3n2)cc1F [A1-4, 2,6-Difluoro-4-((9-(4-(2-morpholinoethyl)phenyl)-9H-purin-2-yl)amino)phenol]
13900 ± 700 nM | 17.8 ± 1 nM | most active molecule | COC(=O)CCCc1ccc(-n2cnc3cnc(Nc4cc(F)c(O)c(F)c4)nc32)cc1 [A1-13, Methyl 4-(4-(2-((3,5-difluoro-4-hydroxyphenyl)amino)-9H-purin-9-yl)phenyl)butanoate]
– | 15.7 ± 4 nM | – | COC(=O)CCc1ccc(-n2cnc3cnc(Nc4cc(F)c(O)c(F)c4)nc32)cc1 [A1-12, Methyl 3-(4-(2-((3,5-difluoro-4-hydroxyphenyl)amino)-9H-purin-9-yl)phenyl)-propanoate]
